Earlier results in publication PMC9516332 (Frontiers in Oncology, 2022).

What was measured:
[1] = biological target: panel of 255 wild-type kinases (Homo sapiens, UniProt P07949); conditions: kinase RET; 1 µmol/L single concentration; ref DOI: 10.1158/1535-7163.MCT-18-0877; cited from earlier work
[2] = biological target: panel of 255 wild-type kinases (Homo sapiens, UniProt P09619); conditions: kinase PDGFRβ; 1 µmol/L single concentration; ref DOI: 10.1158/1535-7163.MCT-18-0877; cited from earlier work
[3] = biological target: panel of 255 wild-type kinases (Homo sapiens, UniProt P19525); conditions: kinase PKR; 1 µmol/L single concentration; ref DOI: 10.1158/1535-7163.MCT-18-0877; cited from earlier work
[4] = biological target: panel of 255 wild-type kinases (Homo sapiens, UniProt P49137); conditions: kinase MAPKAPK2; 1 µmol/L single concentration; ref DOI: 10.1158/1535-7163.MCT-18-0877; cited from earlier work
[5] = biological target: panel of 255 wild-type kinases (Homo sapiens, UniProt P51812); conditions: kinase RSK2; 1 µmol/L single concentration; ref DOI: 10.1158/1535-7163.MCT-18-0877; cited from earlier work
[6] = biological target: panel of 255 wild-type kinases (Homo sapiens, UniProt Q8IU85); conditions: CaMK1δ kinase assay; 1 µmol/L single concentration; ref DOI: 10.1158/1535-7163.MCT-18-0877; cited from earlier work
[7] = biological target: T1, panel of 255 wild-type kinases (Homo sapiens, UniProt Q92630); conditions: kinase DYRK2; 1 µmol/L single concentration; ref DOI: 10.1158/1535-7163.MCT-18-0877; cited from earlier work
T1 sequence (Q92630 1-601): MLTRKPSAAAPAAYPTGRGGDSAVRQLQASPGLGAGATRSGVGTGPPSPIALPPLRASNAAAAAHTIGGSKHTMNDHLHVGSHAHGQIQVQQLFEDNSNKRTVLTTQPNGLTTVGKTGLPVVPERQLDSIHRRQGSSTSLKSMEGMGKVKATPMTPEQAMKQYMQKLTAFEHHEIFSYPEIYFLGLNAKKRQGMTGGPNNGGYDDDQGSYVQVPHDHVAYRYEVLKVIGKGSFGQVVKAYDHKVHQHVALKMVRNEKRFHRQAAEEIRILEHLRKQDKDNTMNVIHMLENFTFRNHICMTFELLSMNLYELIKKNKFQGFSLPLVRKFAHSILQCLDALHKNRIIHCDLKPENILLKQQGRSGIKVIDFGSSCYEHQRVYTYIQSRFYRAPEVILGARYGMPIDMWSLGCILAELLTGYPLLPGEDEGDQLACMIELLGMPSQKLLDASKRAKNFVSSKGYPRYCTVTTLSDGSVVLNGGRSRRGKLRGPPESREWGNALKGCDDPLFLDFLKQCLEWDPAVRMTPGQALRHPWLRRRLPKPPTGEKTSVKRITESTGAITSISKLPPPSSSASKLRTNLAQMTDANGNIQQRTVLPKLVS

[8] = biological target: T2, panel of 255 wild-type kinases (Homo sapiens, UniProt Q9BZL6); conditions: kinase PKD2; 1 µmol/L single concentration; ref DOI: 10.1158/1535-7163.MCT-18-0877; cited from earlier work
T2 sequence (Q9BZL6 1-878): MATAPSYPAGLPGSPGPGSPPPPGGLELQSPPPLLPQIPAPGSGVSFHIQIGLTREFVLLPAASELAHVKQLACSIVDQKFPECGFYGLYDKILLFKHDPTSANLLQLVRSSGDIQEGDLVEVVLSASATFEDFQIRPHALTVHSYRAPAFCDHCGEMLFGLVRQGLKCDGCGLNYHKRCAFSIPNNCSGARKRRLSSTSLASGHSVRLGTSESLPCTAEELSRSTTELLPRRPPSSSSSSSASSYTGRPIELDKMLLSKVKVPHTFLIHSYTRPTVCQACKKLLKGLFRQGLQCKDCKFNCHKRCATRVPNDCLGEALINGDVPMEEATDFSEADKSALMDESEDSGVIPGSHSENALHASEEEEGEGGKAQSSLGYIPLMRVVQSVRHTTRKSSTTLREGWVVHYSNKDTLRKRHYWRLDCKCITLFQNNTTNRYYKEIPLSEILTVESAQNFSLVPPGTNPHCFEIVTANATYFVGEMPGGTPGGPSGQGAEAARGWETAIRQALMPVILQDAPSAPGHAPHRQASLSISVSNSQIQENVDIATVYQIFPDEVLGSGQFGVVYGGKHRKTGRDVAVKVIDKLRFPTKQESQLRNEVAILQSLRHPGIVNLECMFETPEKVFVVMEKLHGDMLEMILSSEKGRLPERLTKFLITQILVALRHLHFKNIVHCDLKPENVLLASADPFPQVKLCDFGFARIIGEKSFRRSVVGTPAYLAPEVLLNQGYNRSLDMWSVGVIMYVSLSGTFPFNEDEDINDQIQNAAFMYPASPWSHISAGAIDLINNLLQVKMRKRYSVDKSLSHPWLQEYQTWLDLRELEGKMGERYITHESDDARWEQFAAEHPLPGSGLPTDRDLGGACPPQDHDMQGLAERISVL

[9] = biological target: T3, panel of 255 wild-type kinases (Homo sapiens, UniProt Q9NWZ3); conditions: kinase IRAK4; 1 µmol/L single concentration; ref DOI: 10.1158/1535-7163.MCT-18-0877; cited from earlier work
T3 sequence (Q9NWZ3 1-460): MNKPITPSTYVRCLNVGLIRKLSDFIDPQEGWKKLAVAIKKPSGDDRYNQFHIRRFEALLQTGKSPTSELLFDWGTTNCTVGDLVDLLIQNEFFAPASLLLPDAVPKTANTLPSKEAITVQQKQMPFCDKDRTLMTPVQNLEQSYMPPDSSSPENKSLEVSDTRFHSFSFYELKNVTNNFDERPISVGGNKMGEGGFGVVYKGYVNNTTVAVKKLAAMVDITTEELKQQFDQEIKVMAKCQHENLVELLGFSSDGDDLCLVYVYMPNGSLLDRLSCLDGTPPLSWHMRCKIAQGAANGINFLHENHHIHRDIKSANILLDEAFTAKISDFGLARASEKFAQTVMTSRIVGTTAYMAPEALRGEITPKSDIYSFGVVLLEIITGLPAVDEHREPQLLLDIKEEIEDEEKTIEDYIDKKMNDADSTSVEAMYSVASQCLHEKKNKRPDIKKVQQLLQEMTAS

C=CC(=O)N1CCC[C@@H](n2nc(-c3ccc(Oc4ccccc4)cc3)c3c(N)ncnc32)C1 [ibrutinib]
%-inhibition at 1 µmol/L, RET [1]: 88%
%-inhibition at 1 µmol/L, PDGFRβ [2]: 55%
%-inhibition at 1 µmol/L, PKR [3]: 5.63%
%-inhibition at 1 µmol/L, MAPKAPK2 [4]: -13%
%-inhibition at 1 µmol/L, RSK2 [5]: 7.41%
%-inhibition CaMK1δ [6]: 5%
%-inhibition at 1 µmol/L, DYRK2 [7]: -1.83%
%-inhibition at 1 µmol/L, PKD2 [8]: -3.2%
%-inhibition at 1 µmol/L, IRAK4 [9]: -5%
